From publication PMC5555576, “Selective small-chemical inhibitors of protein arginine methyltransferase 5 with anti-lung cancer activity” (PLoS ONE, 2017) come the findings set out here.

The assay has as its system histone H2A arginine methylation in lung tumor xenografts. Nature of the assay: Western blot of histone symmetric dimethylarginine in lung tumors. The class given is in vivo, nude mice. As to conditions: 100 mg/kg oral, 21 days, SYM10 antibody. The procedure: Histones were purified as reported previously. Briefly, cells (1–5 x 10^6) or lung tumors (10–100 mg) were lysated using a glass dounce in 1 ml of 1x Passive Lysis Buffer (Promega) and nuclear pellets were collected by centrifugation at 3,000 rpm for 5 min at 4 °C. The supernatant was discard and the pellets were washed with 1 ml of 1x Passive Lysis Buffer. Nuclear pellets were resuspended in 0.4 ml of the buffer (10 mM Trs-HCl, pH7.9, 0.2 mM EDTA, 1 mM DTT, 20% glycerol, 0.42 M KCl) and incubate for 30 min on ice, and centrifuged at 12,000 rpm for 10 min at 4 °C. The supernatant (histones extract) was transferred to a new tube and histones were precipitated by 20% trichloroacetic acid.
Protein extracts or histones (20 μg) were subjected to 10% or 15% sodium dodecyl sulfate-polyacrylamide gel electrophoresis, respectively then transferred to Immobilon-P membranes (Millipore). […] Immunoreactive proteins were detected using an enhanced chemiluminescence detection system (GE Healthcare) per the manufacturer’s instructions. Protein concentrations were determined using the Bradford protein assay reagent (Bio-Rad).
Fig 9 The compound C9a inhibited growth of lung tumor xenografts in nude mice. […] Histones were isolated from tumors and analyzed by SDS-PAGE stained with Commassie blue R250 (bottom) or by Western blot with anti-symmetric dimethyl arginine antibody (SYM10) (top). […]
Background: Immunoblotting shows a protein as a band on a membrane.

For the compound `Nc1cccc(Nc2ncnc3c2cnn3Cc2ccccc2)c1` [Compound C9a], the “arginine methylation in histone H2A in lung tumors” value was “significantly inhibited”.
